# In patent US12117387B2, “Biosensor, method for manufacturing the same, and analysis method using the same” (AJOU UNIVERSITY INDUSTRY-ACADEMIC COOPERATION FOUNDATION, priority 2020, dated 2024):
# Tested on: RAW264.7 cell line
# Assay: Boyden chamber (transwell) macrophage migration versus chemoattractant concentration, retroreflection-based cytometry
# Type: cell-based, rat
# Conditions: 24 hours migration
# Procedure: Experimental Example 3 was conducted to verify that the RAW264.7 cell line cultured in the transwell (the first chamber) coated with the retroreflective particles migrated under influence of monocytechemoattractant protein-1 (MCP-1) as the chemoattractant present in the lower chamber (second chamber), and migrated to the bottom substate of the well plate (the second chamber). In this example, DMEM (Dulbeccos Modified Eagles Medium) was used as the serum-free culture medium in the upper chamber. The culture medium in the lower chamber was composed of 1 ng/ml MCP-1, 10% Fetal Bovine Serum (FBS), and 1% Penicillin streptomycin (PS) based on DMEM (Dulbeccos Modified Eagles Medium). After the first chamber and the second chamber were combined with each other, the cell migration time was specified for 24 hours to observe the cell migration, and the cell migration was observed while culturing the cells in a cell incubator.
# In Experimental Example 4, an experiment was conducted to verify whether the novel developed retroreflection-based cytometry can be used for an evaluation of cell migration dependence on the concentration of the chemoattractant as used in general cell migration analysis. The MCP-1 introduced into the well plate (the second chamber) was added into the culture medium at a concentration of each of 0, 1, 10, and 100 ng/ml. […]
substance,measurement,setting,value
monocytechemoattractant protein-1 [MCP-1],number of migrated cells,100 ng/ml MCP-1 compared to each of 1 and 10 ng/ml,reduced
same,number of migrated cells,MCP-1 concentration increased from 0 to 10 ng/ml,increased
